According to patent US8044198B2, “Sirtuin modulating compounds” (Sirtris Pharmaceuticals, Inc., priority 2005, dated 2011):
Like-named read-outs stand apart in the source and are kept apart here.

Biological target: T1, SIRT1 (Homo sapiens, UniProt Q96EB6)
T1 sequence (Q96EB6 1-747): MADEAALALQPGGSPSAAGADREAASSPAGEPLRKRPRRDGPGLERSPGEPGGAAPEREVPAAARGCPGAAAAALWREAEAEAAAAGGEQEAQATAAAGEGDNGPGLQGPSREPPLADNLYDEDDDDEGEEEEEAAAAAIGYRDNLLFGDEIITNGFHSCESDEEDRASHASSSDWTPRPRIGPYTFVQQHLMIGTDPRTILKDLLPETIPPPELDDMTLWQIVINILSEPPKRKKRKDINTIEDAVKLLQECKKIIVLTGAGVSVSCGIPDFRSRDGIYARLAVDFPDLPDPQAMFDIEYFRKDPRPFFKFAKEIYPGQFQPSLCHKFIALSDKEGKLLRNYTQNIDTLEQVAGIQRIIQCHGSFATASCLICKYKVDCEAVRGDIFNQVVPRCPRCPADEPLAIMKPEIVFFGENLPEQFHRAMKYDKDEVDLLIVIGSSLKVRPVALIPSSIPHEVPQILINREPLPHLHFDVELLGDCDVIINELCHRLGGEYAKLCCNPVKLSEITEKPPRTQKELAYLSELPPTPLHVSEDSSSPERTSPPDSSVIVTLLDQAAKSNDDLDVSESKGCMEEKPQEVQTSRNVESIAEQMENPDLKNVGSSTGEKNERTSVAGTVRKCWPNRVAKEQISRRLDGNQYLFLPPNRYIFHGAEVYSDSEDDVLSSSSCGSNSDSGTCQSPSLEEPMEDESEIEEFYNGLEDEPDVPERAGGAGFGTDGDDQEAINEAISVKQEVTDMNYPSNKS
Experiment: SIRT1 mass spectrometry (MS) based deacetylation assay; on FOLD ACT. MS: test concentration or dose not given here
Type: biochemical
Conditions: for IC50: Sirt1 Inhibitors

[1] = Sirt1 activators, fold activation as determined by MS
[2] = Sirt1 activators, mass spectrometry assay, read-out: ED50 MS ASSAY
[3] = SIRT1 activation, mass spectrometry assay, read-out: ED50 MS ASSAY
[4] = SIRT1 fold activation as determined by MS

Row | Structure (SMILES) | FOLD ACT. MS [1] | EC50 [2] | EC50 [3] | FOLD ACT. MS [4] | also measured
1 | N=C(Nc1ccc(Cl)cc1)Nc1cc(-c2nc3ncccc3o2)ccn1 [Compound 634] | B (B (Fold Activation <250%)) | > 150 µM |  |  | 
2 | COc1cc(NC(=N)Nc2cc(-c3nc4ncccc4o3)ccn2)cc(OC)c1OC [Compound 635] | A (A (Fold activation >250%)) | > 150 µM |  |  | 
3 | COc1cc(C(=O)Nc2cc(-c3nc4ncccc4o3)ccn2)ccc1CN1CCN(C)CC1 [Compound 637] | B (B (Fold Activation <250%)) | > 150 µM |  |  | 
4 | COc1cc(C(=O)Nc2cc(-c3nc4ncccc4o3)ccn2)ccc1CN1CCNCC1 [Compound 638] | B (B (Fold Activation <250%)) | > 150 µM |  |  | 
5 | CCn1ccc(C(=O)Nc2cc(-c3nc4ncccc4o3)ccn2)n1 [Compound 641] | B (B (Fold Activation <250%)) | > 150 µM |  |  | 
6 | COc1cc(C(=O)Nc2cc(-c3nc4ncccc4o3)ccn2)ccc1CN1CCOCC1 [Compound 642] | B (B (Fold Activation <250%)) | > 150 µM |  |  | 
7 | COc1cc(C(=O)Nc2cc(-c3nc4ncccc4o3)ccn2)ccc1CN1CCN(Cc2ccccc2)CC1 [Compound 643] | B (B (Fold Activation <250%)) | 5 to 50 µM |  |  | 
8 | O=C(Nc1ccccc1-c1nc2cc(CN3CCNCC3)cnc2s1)c1ccc2ccccc2n1 [Compound 646] | A (A (Fold activation >250%)) | 5 to 50 µM |  |  | 
9 | CN1CCN(C(=O)Cc2csc3nc(-c4ccccc4NC(=O)c4cnc5ccccc5n4)cn23)CC1 [Compound 649] | A (A (Fold activation >250%)) | < 5 µM |  |  | 
10 | O=S(=O)(Nc1cc(-c2nc3ncccc3o2)ccn1)c1ccc(Cl)cc1 [Compound 652] |  |  |  |  | IC50 (mass spectrometry assay): 51 to 100 µM
11 | COc1ccc(C)cc1S(=O)(=O)Nc1cc(-c2nc3ncccc3o2)ccn1 [Compound 653] |  |  |  |  | IC50 (mass spectrometry assay): 101 to 150 µM
12 | O=S(=O)(Nc1cccc(-c2nc3ccncc3s2)c1)c1ccc(S(=O)(=O)c2ccccc2)s1 [Compound 654] |  |  |  |  | IC50 (mass spectrometry assay): > 150 µM
13 | COc1ccc(NC(=S)Nc2cc(-c3nc4ncccc4o3)ccn2)cc1OC [Compound 660] | B (B (Fold Activation <250%)) | 5 to 50 µM |  |  | 
14 | COc1cc(NC(=S)Nc2cc(-c3nc4ncccc4o3)ccn2)cc(OC)c1 [Compound 661] | B (B (Fold Activation <250%)) | < 5 µM |  |  | 
15 | COc1cc(NC(=S)Nc2cc(-c3nc4ncccc4o3)ccn2)cc(OC)c1OC [Compound 663] | B (B (Fold Activation <250%)) | 5 to 50 µM |  |  | 
16 | FC(F)(F)c1cccc(Cl)c1NC(=S)Nc1cc(-c2nc3ncccc3o2)ccn1 [Compound 667] |  | 5 to 50 µM |  |  | 
17 | O=C(Nc1ccccc1-c1nc2ncccc2o1)c1ccc(Oc2ncccn2)cc1 [Compound 668] | B (B (Fold Activation <250%)) | 5 to 50 µM |  |  | 

Row | Structure (SMILES) | FOLD ACT. MS [1] | EC50 [2] | EC50 [3] | FOLD ACT. MS [4] | also measured
18 | COc1ccc(OC(=O)Nc2ccccc2-c2nc3ncccc3o2)cc1OC [Compound 670] | B (B (Fold Activation <250%)) |  |  |  | EC50: 5 to 50 µM
19 | Cc1cc(C(=O)Nc2ccccc2-c2cn3c(CN4CCNCC4)csc3n2)n(C)n1 [Compound 678] | B (B (Fold Activation <250%)) | 5 to 50 µM |  |  | 
20 | COc1ccc(C(=O)Nc2ccccc2-c2cn3c(CN4CCNCC4)csc3n2)cc1F [Compound 679] | B (B (Fold Activation <250%)) | 5 to 50 µM |  |  | 
21 | COc1cc(C(=O)Nc2ccccc2-c2nc3cc(CN4CCOCC4)cnc3s2)cc(OC)c1OC [Compound 681] |  | 5 to 50 µM |  |  | 
22 | O=C(Nc1ccccc1-c1nc2cc(CN3CCOCC3)cnc2s1)c1ccc2c(c1)OCO2 [Compound 683] |  |  | 5 to 50 µM | B (B (Fold Activation <250%)) | 
23 | Cc1ccc(C(=O)Nc2ccccc2-c2nc3cc(CN4CCOCC4)cnc3s2)cc1C [Compound 684] |  |  | 5 to 50 µM | B (B (Fold Activation <250%)) | 
24 | N#Cc1cccc(C(=O)Nc2ccccc2-c2nc3cc(CN4CCOCC4)cnc3s2)c1 [Compound 685] |  |  | < 5 µM | B (B (Fold Activation <250%)) | 
25 | CN(C)c1cccc(C(=O)Nc2ccccc2-c2nc3cc(CN4CCOCC4)cnc3s2)c1 [Compound 686] |  |  | < 5 µM | A (A (Fold activation >250%)) | 
26 | COc1cc(C(=O)Nc2ccccc2-c2nc3cc(CN(C)C)cnc3s2)cc(OC)c1OC [Compound 689] |  |  | 5 to 50 µM | A (A (Fold activation >250%)) | 
27 | O=C(Nc1ccccc1-c1cn2c(CN3CCNCC3)csc2n1)c1cc(F)cc(F)c1 [Compound 695] |  |  | < 5 µM | A (A (Fold activation >250%)) | 
28 | O=C(Nc1ccccc1-c1cn2c(CN3CCNCC3)csc2n1)c1cccc(OC(F)(F)F)c1 [Compound 698] |  |  | < 5 µM | A (A (Fold activation >250%)) | 
29 | COc1cc(C(=O)Nc2ccccc2-c2nc3cc(CN4CCN(C)CC4)cnc3s2)cc(OC)c1OC [Compound 702] |  |  | 5 to 50 µM | A (A (Fold activation >250%)) | 
30 | O=C(Nc1ccccc1-c1cn2c(CN3CCNCC3)csc2n1)c1ccc(-c2ccccc2)cc1 [Compound 708] |  |  | < 5 µM | A (A (Fold activation >250%)) | 
31 | O=C(Nc1ccccc1-c1cn2c(CN3CCNCC3)csc2n1)c1cccc(-c2ccccc2)c1 [Compound 710] |  |  | < 5 µM | A (A (Fold activation >250%)) | 
32 | COc1cc(OC)cc(C(=O)Nc2ccccc2-c2nc3cc(CN(C)C)cnc3s2)c1 [Compound 722] |  |  | < 5 µM | A (A (Fold activation >250%)) | 
33 | COc1cc(OC)cc(C(=O)Nc2ccccc2-c2nc3c(CN4CCNCC4)ccnc3s2)c1 [Compound 723] |  |  | 5 to 50 µM | A (A (Fold activation >250%)) | 

Second part, led by results:

Row | FOLD ACT. MS [1] | EC50 [2] | EC50 [3] | FOLD ACT. MS [4] | Structure (SMILES) | also measured
34 | A (A (Fold activation >250%)) | 5 to 50 µM |  |  | Cc1cnc(C(=O)Nc2ccccc2-c2cn3c(CN4CCNCC4)csc3n2)cn1 [Compound 644] | 
35 | A (A (Fold activation >250%)) | < 5 µM |  |  | O=C(Nc1ccccc1-c1cn2c(CN3CCNCC3)csc2n1)c1cnc2ccccc2c1 [Compound 645] | 
36 | A (A (Fold activation >250%)) | < 5 µM |  |  | CN(C)CCOCc1csc2nc(-c3ccccc3NC(=O)c3cnc4ccccc4n3)cn12 [Compound 647] | 
37 | B (B (Fold Activation <250%)) | < 5 µM |  |  | O=C(Nc1ccccc1-c1cn2c(CO)csc2n1)c1cnc2ccccc2n1 [Compound 648] | 
38 | A (A (Fold activation >250%)) | < 5 µM |  |  | CC(=O)N1CCN(Cc2csc3nc(-c4ccccc4NC(=O)c4cnc5ccccc5n4)cn23)CC1 [Compound 651] | 
39 | A (A (Fold activation >250%)) | < 5 µM |  |  | O=C(Nc1ccccc1-c1cn2c(CNCC(O)CO)csc2n1)c1cnc2ccccc2n1 (stereo not drawn) [Compound 676] | 
40 | A (A (Fold activation >250%)) | < 5 µM |  |  | O=C1CN(Cc2csc3nc(-c4ccccc4NC(=O)c4cnc5ccccc5n4)cn23)CCN1 [Compound 677] | 
41 | A (A (Fold activation >250%)) | < 5 µM |  |  | O=C(Nc1ccccc1-c1cn2c(CCN3CCNCC3)csc2n1)c1cnc2ccccc2n1 [Compound 680] | 
42 |  |  | < 5 µM | A (A (Fold activation >250%)) | O=C(Nc1ccccc1-c1nc2ccc(CN3CCNCC3)nc2s1)c1cnc2ccccc2n1 [Compound 690] | 
43 |  |  | 101 to 150 µM | B (B (Fold Activation <250%)) | O=C(Nc1ccccc1-c1cn2c(CN3CCNCC3)csc2n1)c1cccc2cccnc12 [Compound 692] | 
44 |  |  | 5 to 50 µM | A (A (Fold activation >250%)) | O=C(Nc1ccccc1-c1cn2c(COCC(O)CO)csc2n1)c1cnc2ccccc2n1 (stereo not drawn) [Compound 699] | 
45 |  |  | < 5 µM | A (A (Fold activation >250%)) | Cc1csc2nc(-c3ccccc3NC(=O)c3cnc4ccccc4n3)cn12 [Compound 707] | 
46 |  |  | 5 to 50 µM | B (B (Fold Activation <250%)) | CC(C)(C)OC(=O)CNCc1csc2nc(-c3ccccc3NC(=O)c3cnc4ccccc4n3)cn12 [Compound 711] | 
47 |  |  | 5 to 50 µM | B (B (Fold Activation <250%)) | O=C(Nc1ccccc1-c1cn2c(CN3CCC(F)CC3)csc2n1)c1cnc2ccccc2n1 [Compound 714] | 
48 |  |  | < 5 µM | B (B (Fold Activation <250%)) | O=C(Nc1ccccc1-c1cn2c(CN3CCSC3)csc2n1)c1cnc2ccccc2n1 [Compound 715] | 
49 |  |  | < 5 µM | A (A (Fold activation >250%)) | NC1CCN(Cc2csc3nc(-c4ccccc4NC(=O)c4cnc5ccccc5n4)cn23)CC1 [Compound 716] | 
50 |  |  | 5 to 50 µM | B (B (Fold Activation <250%)) | O=C(Nc1ccccc1-c1cn2c(CN3CC(F)(F)C3)csc2n1)c1cnc2ccccc2n1 [Compound 717] | 
51 |  |  | 5 to 50 µM | A (A (Fold activation >250%)) | O=C(Nc1ccccc1-c1cn2c(C(=O)O)csc2n1)c1cnc2ccccc2n1 [Compound 719] | 
52 |  |  | 5 to 50 µM | A (A (Fold activation >250%)) | O=C(O)Cc1csc2nc(-c3ccccc3NC(=O)c3cnc4ccccc4n3)cn12 [Compound 721] | 
